The target in one assay is Ls-AChBP (Lymnaea stagnalis, UniProt P58154). Description: biochemical. The format is binding.
In a further assay the target is Ac-AChBP (Aplysia californica, UniProt Q8WSF8). In words: biochemical. The format is binding.
The target in another assay is human α3β2 nAChR (Homo sapiens, UniProt P17787+P32297). Description: cell-based. The format is cell-based.
human α3β2 nAChR, sequence (P32297 32-505 limits assumed): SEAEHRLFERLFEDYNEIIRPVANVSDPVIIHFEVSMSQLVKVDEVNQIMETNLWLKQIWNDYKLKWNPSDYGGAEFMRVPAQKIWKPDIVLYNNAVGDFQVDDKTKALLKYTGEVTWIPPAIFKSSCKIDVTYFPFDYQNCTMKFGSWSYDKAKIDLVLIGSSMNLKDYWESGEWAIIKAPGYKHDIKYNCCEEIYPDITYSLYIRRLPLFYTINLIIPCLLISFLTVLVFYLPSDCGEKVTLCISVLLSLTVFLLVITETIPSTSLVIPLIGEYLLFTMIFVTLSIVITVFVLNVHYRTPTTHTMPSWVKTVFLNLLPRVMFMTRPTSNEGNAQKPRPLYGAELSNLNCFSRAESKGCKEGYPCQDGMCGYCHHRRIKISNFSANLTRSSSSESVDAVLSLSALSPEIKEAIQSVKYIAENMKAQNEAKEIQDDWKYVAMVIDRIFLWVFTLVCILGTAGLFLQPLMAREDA
human α3β2 nAChR, sequence (P17787 26-502 limits assumed): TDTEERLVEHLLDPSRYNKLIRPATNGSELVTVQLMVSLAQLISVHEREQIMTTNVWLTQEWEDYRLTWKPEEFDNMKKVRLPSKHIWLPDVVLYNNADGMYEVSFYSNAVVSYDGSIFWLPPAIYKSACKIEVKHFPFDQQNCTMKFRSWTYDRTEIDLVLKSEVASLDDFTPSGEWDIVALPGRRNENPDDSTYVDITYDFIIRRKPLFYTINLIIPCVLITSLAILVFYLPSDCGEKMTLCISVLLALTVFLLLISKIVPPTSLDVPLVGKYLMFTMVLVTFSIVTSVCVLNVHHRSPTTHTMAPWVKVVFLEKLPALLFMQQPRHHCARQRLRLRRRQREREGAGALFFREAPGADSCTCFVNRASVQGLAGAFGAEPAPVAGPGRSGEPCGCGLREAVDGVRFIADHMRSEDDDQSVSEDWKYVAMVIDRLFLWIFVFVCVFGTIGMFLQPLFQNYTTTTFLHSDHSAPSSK

Ls-AChBP, sequence (P58154 20-229 limits assumed): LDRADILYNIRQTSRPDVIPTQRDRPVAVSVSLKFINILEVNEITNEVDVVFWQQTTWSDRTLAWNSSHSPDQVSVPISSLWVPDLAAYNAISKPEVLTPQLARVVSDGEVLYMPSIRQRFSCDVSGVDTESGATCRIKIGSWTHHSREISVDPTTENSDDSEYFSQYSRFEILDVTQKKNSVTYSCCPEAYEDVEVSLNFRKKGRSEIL
Ac-AChBP, sequence (Q8WSF8 20-236 limits assumed): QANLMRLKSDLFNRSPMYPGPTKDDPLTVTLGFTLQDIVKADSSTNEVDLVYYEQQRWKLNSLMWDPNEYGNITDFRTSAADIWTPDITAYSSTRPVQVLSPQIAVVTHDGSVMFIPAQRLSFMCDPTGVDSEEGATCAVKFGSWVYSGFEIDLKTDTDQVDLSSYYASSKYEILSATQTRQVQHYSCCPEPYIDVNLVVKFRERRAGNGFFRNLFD

At Ls-AChBP, `CC[C@H](C)[C@@H]1NC(=O)[C@H](Cc2cnc[nH]2)NC(=O)[C@H](CCC(N)=O)NC(=O)[C@H](CC(N)=O)NC(=O)[C@H](CC(N)=O)NC(=O)CNC(=O)[C@H](C)NC(=O)[C@@H]2CSSC[C@H](NC(=O)CN)C(=O)N[C@@H](CSSC[C@@H](C(N)=O)NC1=O)C(=O)N[C@@H](CO)C(=O)N[C@@H](Cc1cnc[nH]1)C(=O)N1CCC[C@H]1C(=O)N[C@@H](C)C(=O)N2` [GIC, α-conotoxin GIC] had a Ki of 220 ± 10 nM. Besides, the IC50 against Ac-AChBP turned out to be 29 ± 2 nM; on human α3β2 nAChR, 1.13 nM.
